PubChem BioAssay AID1996
≈ marks a conversion by molar mass, not a printed value.

Conditions: buffer; pH 7.4; 200.0 µM

Compound | solubility kinetic
c1ccc2oc(NC3=NCN(C4CCCCC4)CN3)nc2c1 | 1.3 µg/mL (≈ 4.34 µM)
Cc1ccc(NC(=O)NCC(c2ccccc2)N(C)C)cc1 (stereo not drawn) | > 44.6 µg/mL
COc1ccc(OC)c(N=Cc2c(O)c3ccccc3oc2=O)c1 | 3.6 µg/mL (≈ 11.1 µM)
CCOC(=O)C1CCCN(C(=O)COC(=O)c2cccs2)C1 (stereo not drawn) | 47.6 µg/mL (≈ 146 µM)
Nn1c(Nc2ccc(Cl)cc2)nncc1=O | > 35.6 µg/mL
O=C(O)CCCC(=O)Nc1ccc(Oc2ncnc3cc(Cl)ccc23)nc1 | > 58 µg/mL
CCC(CC)NC(=O)CO/N=C/c1ccc(Cl)cc1Cl | 3 µg/mL (≈ 9.46 µM)
Cc1ccc(C)c(S(=O)(=O)NCc2ccc(C(=O)N3CCOCC3)cc2)c1 | > 58.3 µg/mL
CC1CCCC(NC(=O)CSc2ncccn2)C1C (stereo not drawn) | > 41.9 µg/mL
Cc1cnc(C(=O)NCc2ccc(Cl)cc2Cl)cn1 | 7.7 µg/mL (≈ 26 µM)
O=C(Nc1ccc(O)cc1C(=O)O)c1cccs1 | > 39.5 µg/mL
CCn1c2ccccc2c2nc3cc(S(=O)(=O)N4CCOCC4)ccc3nc21 | 2.4 µg/mL (≈ 6.05 µM)
COc1ccc(CCC(=O)NC2CCCc3ccccc32)cc1OC (stereo not drawn) | 47.5 µg/mL (≈ 140 µM)
Cc1c(/C=N/O)c2ccccn2c1C=O | > 30.3 µg/mL
COCCCn1c(SCC(=O)NC2CCCC2)nnc1-c1ccncc1 | > 56.3 µg/mL
CC(=O)NC1C(O)OC(CO)C(O)C1O (stereo not drawn) | > 33.2 µg/mL
CC1CCCN(C(=O)COc2ccc(Nc3ccccc3)cc2)C1 (stereo not drawn) | 6.2 µg/mL (≈ 19.1 µM)
CCOc1ccc(NC(=O)c2nsc(Cl)c2Cl)cc1 | 1.3 µg/mL (≈ 4.1 µM)
O=C1CNC(=S)N1Cc1ccccc1Cl | > 36.1 µg/mL
COc1ccc(C(=O)Nc2ccc(Nc3ccccc3)cc2)cc1[N+](=O)[O-] | < 0.3 µg/mL
CC(CN1C(C)CCCC1C)OC(=O)c1ccc(Cl)cc1 (stereo not drawn) | > 46.5 µg/mL
CC(C)NC(=O)N1c2ccccc2Sc2ccccc21 | 33.4 µg/mL (≈ 117 µM)
COc1cc([N+](=O)[O-])cc2sc(NC(=O)C3CC3)nc12 | 0.6 µg/mL (≈ 2.05 µM)
N/C(=N\OC(=O)c1ccc(F)cc1)c1ccc(Br)cc1 | 0.4 µg/mL (≈ 1.19 µM)

Compound | solubility kinetic
O=C(Nc1ccncc1)c1ccc(Cl)c([N+](=O)[O-])c1 | > 41.7 µg/mL
Cl.O=S(=O)(NCCN1CCN(S(=O)(=O)c2ccccc2F)CC1)c1ccccc1F | > 72.3 µg/mL
Cc1cc2c(OCC(O)CNCc3ccco3)cccc2[nH]1 (stereo not drawn) | 43.4 µg/mL (≈ 144 µM)
O=C(NCCCl)Nc1ccccc1NS(=O)(=O)c1cccs1 | > 54 µg/mL
O=C(COC(=O)c1cc[n+]([O-])cc1)Nc1ccc(Cl)cc1Cl | > 51.2 µg/mL
CC(=O)c1ccc(NC(=S)N2CCCC(C(F)(F)F)C2)cc1 (stereo not drawn) | 47.6 µg/mL (≈ 144 µM)
O=C(COC(=O)/C=C/c1ccc(OC(F)F)cc1)NC1CCCCCC1 | 4.6 µg/mL (≈ 12.5 µM)
FC(F)(F)c1cnc2c(c1)[nH]c(=S)n2-c1ccc(Cl)cc1 | 3 µg/mL (≈ 9.1 µM)
CCC(C)c1ccccc1OCCCN(C)Cc1ccccc1 (stereo not drawn) | 4.1 µg/mL (≈ 13.2 µM)
Cc1cc(C#N)c(SCC(N)=O)nc1-c1ccc(F)cc1 | 5.6 µg/mL (≈ 18.6 µM)
O=C(c1ccco1)N1CCCC(Nc2ccc3c(c2)OCCO3)C1 (stereo not drawn) | 44.7 µg/mL (≈ 136 µM)
CC(C)(C)NC(=O)[C@H]1CC[C@H]2[C@@H]3CC[C@H]4NC(=O)C=C[C@]4(C)[C@H]3CC[C@]12C | 52.8 µg/mL (≈ 142 µM)
Cc1cccc(-c2nc(C)cc(=O)[nH]2)c1 | > 30 µg/mL
Cc1c(-c2csc(N)n2)cnn1C | > 29.1 µg/mL
O=C(O)CC1(CC(=O)NCc2csc(-c3cccs3)n2)CCCCC1 | 44.9 µg/mL (≈ 119 µM)
CCc1noc(C)c1C(=O)Nc1ccc(F)c(F)c1F | > 42.6 µg/mL
COc1ccccc1NC(=O)COc1cccc2c1CCNC2=O | 6.9 µg/mL (≈ 21.1 µM)
COc1ccc(NC(=O)CSc2nnc(N)s2)c([N+](=O)[O-])c1 | > 51.2 µg/mL
Cc1ccc(OCCNC(=O)c2ccc3c(c2)OCO3)cc1 | 14.4 µg/mL (≈ 48.1 µM)
N/C(=N\c1nc2ccccc2o1)NC(=O)c1ccc([N+](=O)[O-])cc1 | < 0.1 µg/mL
N#C/C(=C\c1ccccc1OCC(=O)O)c1nc2ccccc2[nH]1 | > 47.9 µg/mL
Cc1ccc(C(=O)N2CCN(c3ncnc4c(C)csc34)CC2)cc1 | 4.3 µg/mL (≈ 12.2 µM)
Cc1ccc(NC(=O)NC(=O)c2ccccc2)cc1F | < 0.3 µg/mL
Clc1ccc(SCc2csc(N3CCOCC3)n2)cc1 | 10.2 µg/mL (≈ 31.2 µM)

Compound | solubility kinetic
COCCN1C(=O)C(=O)/C(=C(/O)c2ccc(C)cc2)C1c1ccccn1 (stereo not drawn) | > 52.9 µg/mL
CC1CCCCN1C(=O)CSc1nnc2ccccn12 (stereo not drawn) | > 43.6 µg/mL
CCCCNC(=O)c1cc2c(=O)n3cccc(C)c3nc2s1 | 1.3 µg/mL (≈ 4.12 µM)
Cc1cccc(NC(=O)Nc2ccc3c(c2)CCC3)c1 | < 0.3 µg/mL
O=C(Cn1ccc([N+](=O)[O-])n1)NCCc1c[nH]c2ccccc12 | > 47 µg/mL
Br.CCC1CC(CSC(=N)N)OC1=O (stereo not drawn) | > 42.5 µg/mL
O=C(Oc1ccc(C(=S)N2CCOCC2)cc1)c1cccc(Cl)c1 | < 0.8 µg/mL
O=C(Nc1ccccc1)c1ccccc1NC(=O)[C@H]1CCCC[C@H]1C(=O)O | > 55 µg/mL
Cc1ccc(NC(=O)CNC(=O)c2ccc3c(c2)OCO3)nc1 | 20.5 µg/mL (≈ 65.4 µM)
Cc1cc(OCC(=O)Nc2ccccc2C)no1 | > 36.9 µg/mL
COc1cc(/C=C/c2ccc3cccc(O)c3n2)cc(OC)c1OC | < 0.7 µg/mL
CC(=O)Nc1ccc(N2C(=O)CSC2c2ccccc2)cc1 (stereo not drawn) | > 46.9 µg/mL
O=C(NOCc1ccccc1)c1ccc(Cl)cc1 | 11.3 µg/mL (≈ 43.2 µM)
CC(C)(C)SCCNS(=O)(=O)c1ccc(C#N)cc1 | 18.1 µg/mL (≈ 60.7 µM)
Nc1ccc(C(=O)OCC(=O)NC2CC2)cc1[N+](=O)[O-] | > 41.9 µg/mL
CCCCOc1ccc(N2CC(C(=O)NCc3ccco3)CC2=O)cc1 (stereo not drawn) | 12.6 µg/mL (≈ 35.4 µM)
Cc1ccc(/C=C/S(=O)(=O)NCCC(=O)NCc2ccccc2F)cc1 | 9 µg/mL (≈ 23.9 µM)
CCc1ccc(NC(=O)C2CCCN2C(=O)NC2CCCCC2)cc1 (stereo not drawn) | 1.1 µg/mL (≈ 3.2 µM)
CC(C)[C@H](NS(=O)(=O)c1ccccc1)C(=O)Nc1nccs1 | 7.2 µg/mL (≈ 21.2 µM)
O=C(NCc1csc(-c2cccs2)n1)c1ccsc1 | 45.9 µg/mL (≈ 150 µM)
Cc1ccc(/C=C/C(=O)NCCc2ccccc2)o1 | 33.9 µg/mL (≈ 133 µM)
Cn1cnnc1Sc1ccc(S(C)(=O)=O)cc1[N+](=O)[O-] | > 47.1 µg/mL
Cc1ccc(NC(=O)CCNC(=O)c2ccc(Cl)cc2)nc1 | 16.8 µg/mL (≈ 52.9 µM)
Cc1sc2nc(C(C)C)nc(SCC(=O)NC3CC3)c2c1C | 1.5 µg/mL (≈ 4.47 µM)

Compound | solubility kinetic
Nc1nc(SC23CC4CC(CC(C4)C2)C3)ns1 | < 0.2 µg/mL
O=C(Nc1nc2ccccc2s1)c1ccc(F)cc1 | 0.6 µg/mL (≈ 2.2 µM)
O=C1c2cccc3cccc(c23)C(=O)N1Cc1cccnc1 | 1.6 µg/mL (≈ 5.55 µM)
CCN(Cc1ccncc1)C(=O)c1ccc2c(c1)S(=O)(=O)c1ccccc1C2=O | 42 µg/mL (≈ 103 µM)
S=C(Nc1ccc(Oc2ccccc2)cc1)N1CCOCC1 | 42.8 µg/mL (≈ 136 µM)
Cc1ccc(CNC(=S)NCc2ccncc2)cc1 | 39.7 µg/mL (≈ 146 µM)
CC(C)(C)NC(=O)COc1ccc(CNc2ccc3[nH]c(=O)[nH]c3c2)cc1 | 0.8 µg/mL (≈ 2.17 µM)
COc1ccc(Oc2ccccc2C#N)cc1 | 9.9 µg/mL (≈ 44 µM)
O=C(CSc1ccc(F)cc1)NC12CC3CC(CC(C3)C1)C2 | 1.1 µg/mL (≈ 3.44 µM)
O=[N+]([O-])/C=C1\C=CC=CN1Cc1ccc(Cl)cc1 | 31.7 µg/mL (≈ 121 µM)
Cc1nnc(SCC(=O)NC2CCCCCC2)n1C(C)C | > 46.6 µg/mL
OCC1OC(n2cnc3c(NCCc4ccccc4)ncnc32)C(O)C1O (stereo not drawn) | > 55.7 µg/mL
O=C(c1ccc2ccccc2n1)N1CCN(S(=O)(=O)c2ccc(Cl)cc2)CC1 | 27.4 µg/mL (≈ 65.9 µM)
COc1ccc(/C=C2\C(=O)ON=C2c2ccccc2)cc1 | 39.1 µg/mL (≈ 140 µM)
CC1COc2ccccc2N1C(=O)c1ccccc1Cl (stereo not drawn) | > 43.2 µg/mL
COc1cc(NC(=S)N2CCN(CCO)CC2)cc(OC)c1 | > 48.8 µg/mL
Nc1cccc2c1C(=O)N(CCOc1ccc(F)cc1)C2=O | 8.4 µg/mL (≈ 28 µM)
CC(=O)c1ccc(NC(=S)NN2C(C)CCCC2C)cc1 (stereo not drawn) | > 45.8 µg/mL
CC(=O)c1ccc(NC2=NCCCS2)cc1 | > 35.1 µg/mL
O=C(Nc1ccc2c(c1)Cc1ccccc1-2)c1cccnc1 | 1.4 µg/mL (≈ 4.89 µM)
O=C(CCCCl)N1CCc2[nH]c3ccccc3c2C1 | > 41.5 µg/mL
Cc1ccc(C(=O)NC2CCCc3ccccc32)cc1[N+](=O)[O-] (stereo not drawn) | 9.3 µg/mL (≈ 30 µM)
COc1ccc(NC(C)=O)cc1S(=O)(=O)Nc1ccc(S(=O)(=O)N2CCCCC2)cc1 | > 70.1 µg/mL
O=S(=O)(NC(=S)NC1CCCCC1)c1ccc(Cl)cc1 | > 49.9 µg/mL

Compound | solubility kinetic
COc1cccc(Oc2ccc(C(F)(F)F)cc2NC(=O)CN2C(=O)NC3(CCCC3)C2=O)c1 | 2.7 µg/mL (≈ 5.66 µM)
CCCNC(=O)[C@H](C)NC(=O)c1ccc(Br)cc1 | > 47 µg/mL
Cn1ccc(C(=O)OCC(=O)Nc2ccccc2Cl)n1 | > 44.1 µg/mL
CC(=O)NCCNS(=O)(=O)c1ccc(C)c([N+](=O)[O-])c1 | > 45.2 µg/mL
COc1ccc(NC(=O)C2CC(c3ccccc3O)=NO2)cc1OC (stereo not drawn) | 1.5 µg/mL (≈ 4.38 µM)
COc1ccccc1OCCn1cc(C=O)c2ccccc21 | 7.8 µg/mL (≈ 26.4 µM)
CCN(CC)CCN(C(=O)/C=C/c1cccs1)c1nc2ccc(F)cc2s1.Cl | < 0.3 µg/mL
O=C(C1Cc2ccccc2CN1S(=O)(=O)c1ccccc1[N+](=O)[O-])N1CCOCC1 (stereo not drawn) | 63.7 µg/mL (≈ 148 µM)
COc1cccc(CNC(=O)CCCNC(=O)c2ccc(Cl)cc2)c1 | 37.8 µg/mL (≈ 105 µM)
CCN1CCc2c(OCC(=O)Nc3cccc(C)c3)cccc2C1=O | > 50.8 µg/mL
COC(=O)c1ccc(OC(=O)c2cccnc2SC)cc1 | < 0.6 µg/mL
O=c1c2cc(Br)ccc2[nH]c(=S)n1Cc1ccccc1 | < 0.4 µg/mL
CC1CC(C)CN(C(=O)COC(=O)CN2C(=O)c3ccccc3C2=O)C1 (stereo not drawn) | > 53.8 µg/mL
COc1ccc(Cl)cc1NC(=O)C1(c2cccs2)CCOCC1 | 21.7 µg/mL (≈ 61.7 µM)
N#CCCN(Cc1cccs1)C(=O)Nc1ccccc1 | 41.1 µg/mL (≈ 144 µM)
Cn1c(=O)c2[nH]c(SCC(=O)c3ccc(F)cc3)nc2n(C)c1=O | 7.5 µg/mL (≈ 21.5 µM)
COc1ccc(NC(=O)c2cc(-c3cccs3)on2)cc1 | 0.3 µg/mL (≈ 0.999 µM)
Cc1ccc(NC(=O)CC(C)c2ccccc2)cc1S(=O)(=O)N1CCOCC1 (stereo not drawn) | 47.5 µg/mL (≈ 118 µM)
Cc1ccccc1/C=C/c1nc2ccccc2c(=O)[nH]1 | 0.4 µg/mL (≈ 1.52 µM)
COP(=O)(c1ccc(N(C)C)cc1)C(O)c1ccccc1 (stereo not drawn) | > 45.8 µg/mL
O=C(CCC(=O)N1CCCC1)N1CCCC1 | > 33.6 µg/mL
CCOC(=O)Cc1ccc(NC(=O)c2ccc([N+](=O)[O-])cc2)cc1 | 1 µg/mL (≈ 3.05 µM)
